Assays:
[1] = Body weight of C57BL/6 mice bearing MC38 tumors (Example 11); format: in vivo, Mus musculus; conditions: C57BL/6, MC38, 2 μmol/kg S.C. QD
Description: The treatments were started when the mean tumor size reached 82-129 mm^3 (average tumor size 102 mm^3). Each group contained 6 tumor bearing mice. Group 1 was treated with Vehicle (10% DMSO+90% Saline), S.C., QD. Group 2 was given treatments with compound 2 at 2 μmol/kg, S.C., QD. Group 3 was given treatments with compound 81 at 2 μmol/kg, S.C., QD. Group 4 was given treatments with compound 443 at 2 μmol/kg, S.C., QD. Group 5 was given treatments with compound 459 at 2 μmol/kg, S.C., QD. Group 6 was given treatments with compound 3 at 2 μmol/kg, S.C., QD.
(§1) In vivo efficacy was examined according to absolute tumor growth inhibition (TGI) and the safety was evaluated according to weight change and survival in mice.

[2] = Plasma stability, human plasma; conditions: 1 μM, 37° C., 4 hours
Description: For metabolic stability, plasma from dog, monkey, swine and human were used. For stability, prodrugs (1 μM) were spiked in respective solutions and incubated in an orbital shaker at 37° C. 50 μL aliquots of the mixture in duplicate were removed, and the reaction quenched by addition of four times the volume of ice cold acetonitrile spiked with the internal standard (Dexamethasone 100 ng/mL). […] 100 μL of the supernatant was diluted with 100 μL of water and transferred to the 0.6 mL plastic tubes on 96-well plate. Prodrug disappearance was monitored over time using a liquid chromatography and tandem mass spectrometry (LC-MS/MS).
(§2) For LC-MS/MS, prodrugs were analyzed on a ExionLC AD HPLC system coupled to REF Triple Quad 5500+ mass spectrometer with an ESI interface on an Phenomenex Kinetex 5 m C18 100A (2.1*50) mm UPLC column. The autosampler was temperature controlled and was operated at 4° C. The mobile phase used for the chromatographic separation was composed of acetonitrile/water containing 0.10% formic acid and will run at a flow rate of 0.6 mL/min for 3.5 min using gradient elution. The column effluent was monitored using […], equipped with an electrospray probe set in the positive ionization mode. Samples were introduced into the ionization source through a heated nebulized probe (400° C.). Disappearance of prodrugs will be measured from ratio of peak areas of analyte to IS.
(§3) For quantification of compound remaining, disappearance of prodrugs was measured from ratio of peak areas of analyte to IS.

[3] = Plasma stability, dog plasma; format: in vitro ADME; conditions: 1 μM, 37° C., 4 hours
Description: For metabolic stability, plasma from dog, monkey, swine and human were used. For stability, prodrugs (1 μM) were spiked in respective solutions and incubated in an orbital shaker at 37° C. 50 μL aliquots of the mixture in duplicate were removed, and the reaction quenched by addition of four times the volume of ice cold acetonitrile spiked with the internal standard (Dexamethasone 100 ng/mL). The samples were vortexed for 30 s and centrifuged at 15000 g for 5 min. 100 μL of the supernatant was diluted with 100 μL of water and transferred to the 0.6 mL plastic tubes on 96-well plate. Prodrug disappearance was monitored over time using a liquid chromatography and tandem mass spectrometry (LC-MS/MS).
as §2, §3

[4] = Solubility in water, remark in the synthesis example; format: physicochemical; conditions: remark on the isolated product
[5] = Stability in liver microsomes, human; format: in vitro ADME; conditions: 60 minutes, read-out: In vitro Clint
Description: For metabolic stability, microsomes from human, monkey, dog, rat and mouse were used. For stability, prodrugs (1 μM) were spiked in each microsomes matrix and incubated in an orbital shaker at 37° C. Aliquots of 50 μL were taken from the reaction solution at 0, 15, 30, 45 and 60 min. The reaction was stopped by the addition of 4 volumes of cold acetonitrile with IS (100 nM alprazolam, 200 nM labetalol, 200 nM caffeine and 2 μM ketoprofen). Samples were centrifuged at 3, 220 g for 40 minutes. Aliquot of 100 μL of the supernatant was mixed with 100 μL of ultra-pure H2O and then used for LC-MS/MS analysis.
For LC-MS/MS, prodrugs were analyzed on an API 4000 instrument from AB Inc (Canada) with an ESI interface coupled to Shimadzu LC system on an Waters XSelect HSS T3 C18, 2.5 m, 2.1×30 mm column.
For data analysis, peak areas were determined from extracted ion chromatograms. The slope value, k, was determined by linear regression of the natural logarithm of the remaining percentage of the parent drug vs. incubation time curve. The in vitro half-life (in vitro t1/2) was determined from the slope value: in vitro t1/2=−(0.693/k)
Conversion of the in vitro t1/2 (min) into the in vitro intrinsic clearance (in vitro CLint, in μL/min/mg protein) was done using the following equation (mean of duplicate determinations): […]

MC38 tumor cells = test: Anti-tumor efficacy in MC38 syngeneics in C57BL/6 mouse (Example 9); format: in vivo; conditions: C57BL/6, MC38, 2 μmol/kg S.C. QD; for T/C (%) / TGI (%) / TV (mm^3) (Mean ± SEM) D21 / TV (mm^3) at D21 (Mean ± SEM): D21; for TV (mm^3) at D21 (Mean ± SEM): Table 5
Description: Animal species: Mus musculus; Strain: C57BL/6; Age: 6-8 weeks; Sex: female.
The MC38 tumor cells were maintained in vitro in DMEM medium supplemented with 10% FBS at 37° C., 5% CO2. The cells growing in an exponential growth phase were harvested and counted for tumor inoculation. The culture MC38 were harvested, re-suspended in PBS containing 50% Matrigel at a density of 1×10^7 cells/mL. Each mouse was inoculated subcutaneously in the right flank region with 1×10^6 cells in 0.1 mL of PBS containing 50% Matrigel for tumor development.
The treatments were started when the mean tumor size reached 79-118 mm^3 (average tumor size 96 mm^3). Each group contained 8 tumor bearing mice. Group 1 was treated with Vehicle (10% DMSO+90% Saline), S.C., QD.
as §1
Statistical analysis of difference in tumor volume among the groups was performed using one-way ANOVA followed by individual comparisons using Games-Howell post-hoc test (equal variance not assumed). All data was analyzed using SPSS 22.0 software.

| Compound | BW(g) (Mean ± SEM) Beginning (D6) ([1]; D6) | BW Change (%) ([1]; D6 to D20) | BW(g) (Mean ± SEM) End (D20) ([1]; D20) | plasma stability (compound remaining) [2] | plasma stability (compound remaining) [3] | solubility in water [4] | microsomal CLint at 1 μM [5] | TV (mm^3) (Mean ± SEM) D6 (MC38 tumor cells) | TV (mm^3) (Mean ± SEM) D10 (MC38 tumor cells) | TV (mm^3) (Mean ± SEM) D14 (MC38 tumor cells) | TV (mm^3) (Mean ± SEM) D18 (MC38 tumor cells) | T/C (%) (MC38 tumor cells) | TGI (%) (MC38 tumor cells) | TV (mm^3) (Mean ± SEM) D21 (MC38 tumor cells) | TV (mm^3) (Mean ± SEM) D25 (MC38 tumor cells) | TV (mm^3) (Mean ± SEM) D28 (MC38 tumor cells) | TV (mm^3) (Mean ± SEM) D31 (MC38 tumor cells) | TV (mm^3) at D21 (Mean ± SEM) (MC38 tumor cells) |
| --- | --- | --- | --- | --- | --- | --- | --- | --- | --- | --- | --- | --- | --- | --- | --- | --- | --- | --- |
| CO[C@@H](C)C(=O)N[C@@H](CCC(=O)C=[N+]=[N-])C(=O)OC(C)C [Compound 2, isopropyl (S)-6-diazo-2-((S)-2-methoxypropanamido)-5-oxohexanoate] | 19.8 ± 0.2 g | +6.4% | 21.1 ± 0.3 g | substantially intact | substantially intact | easily dissolved in water | 43.4 µL/min/mg | 96 ± 4 mm^3 | 141 ± 9 mm^3 | 140 ± 10 mm^3 | 180 ± 13 mm^3 | 9.5% | 90.5% | 263 ± 32 mm^3 | 381 ± 55 mm^3 | 496 ± 62 mm^3 | 617 ± 56 mm^3 | 263 ± 32 mm^3 |
| CC(=O)N[C@@H](Cc1c[nH]c2ccccc12)C(=O)N[C@@H](CCC(=O)C=[N+]=[N-])C(=O)OC(C)C [Reference compound A, reference compound] |  |  |  | substantially intact | substantially intact |  | 119 µL/min/mg | 96 ± 4 mm^3 | 148 ± 6 mm^3 | 196 ± 25 mm^3 | 297 ± 48 mm^3 | 14.4% | 85.6% | 399 ± 74 mm^3 | 680 ± 143 mm^3 | 928 ± 153 mm^3 | 1358 ± 213 mm^3 | 399 ± 74 mm^3 |

From patent publication US12577201B2, “Glutamine analogs” (Jacobio Pharmaceuticals Co., Ltd., priority 2020, dated 2026)
